How the values were obtained:
streptavidin = streptavidin (Streptomyces avidinii, UniProt P22629); experiment: SPR of streptavidin binding to maleimide SAM treated with biotinylated model peptides; settings: SAM presenting maleimide at 2%, then streptavidin
Description: Michael acceptor-derivatized surfaces like that depicted in FIG. 1 are well adapted for selectively immobilizing and orienting functional organic molecules for such uses as biosensors, high throughput assays, binding assays, enzymatic assays and cell cultures. […] Surface binding was detected using biotinylated, cysteine-containing peptides and streptavidin. SAMs presenting the maleimide group at a density of 2% were applied to gold-coated coverslips according to the Examples. The SAM coated coverslips were each treated with solutions containing various reactive molecules dissolved in phosphate buffer (pH 6), and the reactivity of the surface was characterized by flowing the protein streptavidin, which selectively binds biotin, over the SAM. Streptavidin binding was quantitated by surface plasmon resonance.
Referring to FIG. 3, sensorgram (A), the SAM-coated coverslip was treated with a solution of the model biotinylated peptide biotin-NH-Arg-Asp-Cys-CONH2 (1.2 mM) for 12 minutes. 2280 RU of streptavidin binding was observed. Sensorgram (B) was obtained using a solution containing a mixture of the model peptide (0.6 mM) and lysine (16 mM). […]
SPR was performed with a Biacore 3000 instrument. Gold-coated glass microscope cover glass presenting SAMs to be analyzed were mounted in SPR cartridges. […]

[1] = molecular target: T1, β1,4-galactosyltransferase (Bos taurus, UniProt P08037); experiment: Glycosyltransferase assay on immobilized carbohydrates (UDP [14C] galactose, phosphorimaging); format: biochemical, bovine; settings: three immobilized carbohydrate substrates; UDP [^14C] galactose 3.5 μM
T1 sequence (P08037 1-402): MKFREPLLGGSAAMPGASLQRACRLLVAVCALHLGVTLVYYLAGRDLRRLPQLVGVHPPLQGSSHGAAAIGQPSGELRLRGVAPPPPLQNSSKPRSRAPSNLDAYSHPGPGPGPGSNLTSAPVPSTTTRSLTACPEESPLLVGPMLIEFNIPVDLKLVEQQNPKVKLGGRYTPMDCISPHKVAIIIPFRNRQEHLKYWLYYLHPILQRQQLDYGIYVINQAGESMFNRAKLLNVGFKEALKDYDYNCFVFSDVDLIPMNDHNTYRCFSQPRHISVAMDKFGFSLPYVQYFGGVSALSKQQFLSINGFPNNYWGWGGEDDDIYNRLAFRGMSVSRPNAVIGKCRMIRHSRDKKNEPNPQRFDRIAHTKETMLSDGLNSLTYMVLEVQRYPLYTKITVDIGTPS
Protocol: FIG. 12 depicts the results of a Glycosyltransferase assay. The surface comprises three different carbohydrate substrates defined by columns and a control column (no substrate). Each row was reacted with a different concentration of β1,4-galactosyltransferase and a constant concentration of sugar donor (UDP [^14C] galactose, 3.5 μM). The reaction was detected by phosphorimaging.
Referring to FIG. 12, in the glycosyltransferase assay, various carbohydrates were immobilized using a thiol chemical tag to bond to a monolayer thiolate bearing a maleimide group. A glycosyltransferase enzyme was added to the immobilized carbohydrates. The ability of the enzyme to add radioactively labeled sugars to the immobilized carbohydrates was measured. In the glycosyltransferase assay the enzyme that was employed is bovine recombinant β1,4-galactosyltransferase. Preferably, the enzyme is at a concentration of about 10 pM to about 100 uM. More preferably, the enzyme is at a concentration of about 100 pM to about 1 uM.
Detection of glycosylation of the immobilized carbohydrate substrates on the base plate was performed radiometrically. The incorporation of ^14C was quantified by exposing a storage phosphor screen to the plate and then imaging it on a Variable Mode Imager (Typhoon 8600; Molecular Dynamics, Sunnyvale, Calif.). […]

[2] = SPR of immobilization of cutinase to SAM terminated in phosphonate binding partner; settings: PBS pH 7.4; not removed by SDS 0.5 mg/mL
Protocol: A self-assembled monolayer (SAM) terminated in a phosphonate binding partner moiety was prepared. The ligand was present at a low density mixed with tri(ethylene glycol) groups, which resist non-specific protein adsorption. The immobilization of cutinase to the monolayer was characterized by SPR spectroscopy. Phosphate buffered saline (pH 7.4) was flowed over the monolayer for 2 min to establish a baseline, followed by a solution of protein in the same buffer for 10 min to observe binding. Finally, the protein solution was replaced with buffer for 6 min to quantitate the amount of protein that was irreversibly immobilized.

[3] = SPR of protein adsorption on biotin-presenting maleimide/EG3 mixed SAM surface (specific binding and NSB)
Protocol: FIG. 4 is a surface plasmon resonance sensorgram of a SAM presenting maleimide at a density of 2%. The SAM-coated coverslip was treated with the biotinylated, thiol-containing, model peptide biotin-NH-Arg-Asp-Cys-CONH2 (1.2 mM) for 12 minutes. Afterwards, a solution of the “sticky” protein fibrinogen (0.5 mg/mL) was flowed over the surface. Only 60 RU of adsorption was observed. Another coverslip was treated with the model peptide solution and then treated with streptavidin that had been pre-incubated with biotin.
A gold chip that presents 1.5% maleimide groups in a background of EG3 was loaded into an SPR machine (Biacore 3000). Two flow channels over this chip were simultaneously exposed to cysteine-biotin that reacts with the maleinide in order to present 1.5% biotin at the surface. Subsequently, one channel was exposed to 70 ug/mL of streptavidin and then one channel was exposed to 500 ug/mL of fibrinogen.
SPR was performed with a Biacore 3000 instrument. Gold-coated glass microscope cover glass presenting SAMs to be analyzed were mounted in SPR cartridges. All experiments used a flow rate of 10 μL/min.

[4] = SPR of biospecific-covalent attachment of cutinase-fusion protein to PNPP-terminated surfaces; format: binding
Protocol: A gold chip that presents 1.5% maleimide groups in a background of EG3 was exposed to a 5 mM methanolic solution of (8-mercapto-octyl)-phosphonic acid ethyl ester 4-nitro-phenyl ester—the bifunctional molecule (compound 5; HS-PNPP)—for 1 hour. During this process the thiol group of HS-PNPP reacts with the maleimide groups at the surface and results in 1.5% of a monolayer of the PNPP ligand being presented at the surface.
The chip created above was then loaded into the SPR machine that contacts a microfluidic manifold to the gold chip to allow different solutions to be delivered to the surface in up to 4 flow channels. The following fluidic protocol was then applied to the surface and the SPR signal—which measures the mass of protein that adsorbs to the surface—was measured as a function of time:
t=0 to 300 s. Flow channels 1-3 (Fc=1 to 3) were all exposed to 20 mM tris (pH 7.4) buffer t=300 to 1500 s. Fc=1 to 3 were then exposed to 3 different solutions: Fc=1: 500 ug/mL fibrinogen in 20 mM tris (pH 7.4) buffer Fc=2: 40 microM of cutinase fused to hexahistidine (cutinase-his6) in 20 mM tris buffer Fc=3: 40 microM of cutinase-his6 pre-mixed with 100 microM of PNPP t=1500 to 2250 s. Fc=1 to 3 were all exposed to 20 mM tris (pH 7.4) buffer t=2250 to 2850 s. Fc=1 to 3 were all exposed to 8 mM SDS in 20 mM tris (pH 7.4) buffer t>2850 s. Fc=1 to 3 were all exposed to 20 mM tris (pH 7.4) buffer

Q: For biotin-NH-Arg-Asp-Lys-CONH2, which “streptavidin binding” value (streptavidin; peptide 4 mM for 12 minutes) is on record?
A: no streptavidin binding

Q: Which “substrate for the enzyme” value [1] does the source give for GlcNAc here?
A: only the immobilized GlcNAc was a substrate

Q: With “Cutinase: recombinant Fusarium solani pisi cutinase expressed in E. coli” as the substance, how does the “binding to phosphonate monolayer” value [2] read?
A: bound irreversibly to the surface

Q: With biotin-NH-Arg-Asp-Cys-CONH2 as the substance, how does the streptavidin binding (streptavidin; peptide 1.2 mM for 12 minutes) read?
A: 2280 RU

Q: For “streptavidin: protein which selectively binds biotin”, which “signal change caused by adsorption” value ([3]; 1.5% maleimide in EG3 reacted with cysteine-biotin, 70 ug/mL streptavidin) is on record?
A: 2100 RU

Q: Which results are given for “cutinase-his6: cutinase fused to hexahistidine”?
A: protein immobilized ([4]; Fc=2, 40 microM in 20 mM tris buffer): 1150 RU; protein immobilized after SDS wash ([4]; Fc=2, after 8 mM SDS wash): 1080 RU; adsorption after preincubation with PNPP ([4]; Fc=3, 40 microM pre-mixed with 100 microM PNPP): 30 RU

Q: For fibrinogen, which “non-specific binding to PNPP surface” value ([4]; Fc=1, 500 ug/mL fibrinogen) is on record?
A: did not stick to this surface

Q: And the “signal change caused by adsorption (NSB)” value ([3]; 1.5% maleimide in EG3 reacted with cysteine-biotin, 500 ug/mL fibrinogen)?
A: 90 RU

Q: And the “adsorption (non-specific)” value ([3]; SAM 2% maleimide treated with biotin-NH-Arg-Asp-Cys-CONH2, fibrinogen 0.5 mg/mL)?
A: 60 RU
